From patent publication US8198061B2, “Acetylcholinesterase gene responsible for insecticide resistance and applications thereof” (priority 2002, dated 2012)

Assays:
[1] = molecular target: AChE; conditions: Abramson et al., Mol. Pharmacol., 1989, 36, 349; read-out: apparent affinity; cited from earlier work
[2] = molecular target: T1, Culex pipiens AChE1, sensitive S-LAB strain (glycine at position 119) (Culex pipiens, UniProt Q86GC8); assay: Acetylcholinesterase activity of recombinant sensitive AChE1 (S2 cell extracts) with propoxur; type: biochemical; conditions: 10^−3 M of propoxur
T1 construct: The cDNAs encoding the AChE1s of, respectively, the strain S-LAB and the strain SR were cloned in the eukaryotic expression vector pAc5.1/V5-His; V5-His (from the vector pAc5.1/V5-His); made in house; host or cells: Drosophila Schneider S2 cells, transiently transfected; Triton X-100 cell extract, not purified
Description: (§1) The cDNAs encoding the AChE1s of, respectively, the strain S-LAB and the strain SR were cloned in the eukaryotic expression vector pAc5.1/V5-His (INVITROGEN), according to conventional recombinant DNA techniques, by following standard protocols such as those described in Current Protocols in Molecular Biology, mentioned above. Drosophila cells (Schneider S2 cells) were transfected with the recombinant vectors thus obtained, using the Fugen® reagent (ROCHE), according to the manufacturer's instructions. 24 hours after transfection, the cells were harvested by centrifugation and then lyzed in a 0.25M phosphate buffer containing 1% Triton X-100. The acetylcholinesterase activity of the cell extracts obtained was measured, in the presence or in the absence of insecticide (propoxur), by the method as described in Bourguet et al., Biochemical Genetics, 1996, 34, 351-362.
(§2) The recombinant AChE1s of, respectively, the strain S-LAB and the strain SR were expressed in insect cells and the acetylcholinesterase activity was measured using cell extracts as described in example 1.

[3] = molecular target: T2, Culex pipiens AChE1, resistant SR strain (serine at position 119, G119S) (Culex pipiens, UniProt Q86GC8, G247S); assay: Acetylcholinesterase activity of recombinant resistant AChE1 (S2 cell extracts) with propoxur; type: biochemical; conditions: glycine247(119)→serine247(119) mutant (SR); 10^−4 M and 10^−2 M of propoxur; FIG. 10
T2 construct: The cDNAs encoding the AChE1s of, respectively, the strain S-LAB and the strain SR were cloned in the eukaryotic expression vector pAc5.1/V5-His; V5-His (from the vector pAc5.1/V5-His); made in house; host or cells: Drosophila Schneider S2 cells, transiently transfected; Triton X-100 cell extract, not purified
Description: as §1, §2

[4] = test system: C. pipiens larvae; assay: Larval mortality on exposure to propoxur (back crosses, ace-1 linkage study); type: in vivo, Culex pipiens
Description: With the females being indicated first, F1 crosses (S×R) and back crosses (F1×S-LAB and S-LAB×F1) were obtained by mass crossing of adults. A few larvae derived from the back crosses were treated with a dose of carbamate (propoxur, 4 mg/l) which kills 100% of sensitive larvae. The linkage between ace-1 and propoxur resistance was studied by RFLP in the surviving larvae, based on a 320 bp PCR product making it possible to identify the S and R alleles. The experiments were carried out independently, with S=SA1, S=SA4 and S=EDIT.
The linkage between the ace-1 gene and propoxur resistance was studied, in triplicate, in the following way: larvae from a backcross (S×R)×S were treated for a dose that is lethal for sensitive individuals and the ace-1 genotype was analyzed in the survivors, by PCR-RFLP.

SMILES	Kd [1] [µM]	activity of the AChE1 inhibited [2] [%]	sensitivity of the acetylcholinesterase to the insecticide [3]	larvae killed in back crosses ([4]; larvae from backcross (S×R)×S, dose lethal for sensitive individuals, all back crosses) [%]	sensitive larvae killed ([4]; sensitive larvae, propoxur 4 mg/l) [%]
C=C1CCCC(C)(C)C1C/C=C(C=O)\C=C\OC(C)=O (centres unmarked) [onchidal]	300	–	–	–	–
CNC(=O)Oc1ccccc1OC(C)C [propoxur]	–	90	insensitive	50	100
